Source: patent US20120016119A1, “NOVEL PYRROLO(2,3-d)PYRIMIDINE COMPOUND” (priority 2009, published 2012)

How the values were obtained:
human GPR119 = target: T1, human GPR119 (Homo sapiens, UniProt Q8TDV5); test: GPR119 agonistic activity: cAMP production in human GPR119-expressed CHO cells (HTRF cAMP kit); type: cell-based; details: human GPR119-expressed CHO cells (L8-18), 37° C. for 30 minutes, 500 μM IBMX
T1 construct: expressed in transfected cells; host or cells: CHO cells (LM-3 mock cells carrying luciferase reporter pLG3-CRE6-CRE-VIP); resulting line L8-18
T1 sequence (Q8TDV5 1-335): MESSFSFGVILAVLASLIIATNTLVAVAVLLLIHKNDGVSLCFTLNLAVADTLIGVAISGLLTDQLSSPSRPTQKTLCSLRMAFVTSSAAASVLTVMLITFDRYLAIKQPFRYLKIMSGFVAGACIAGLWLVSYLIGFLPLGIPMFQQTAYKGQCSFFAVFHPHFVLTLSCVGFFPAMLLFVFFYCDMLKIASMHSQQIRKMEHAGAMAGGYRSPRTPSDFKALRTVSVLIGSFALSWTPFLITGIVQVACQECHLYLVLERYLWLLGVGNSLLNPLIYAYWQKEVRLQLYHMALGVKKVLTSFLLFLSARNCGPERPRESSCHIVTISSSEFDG
Experimental: The present experiment is directed to evaluate GPR119 agonistic activity (in vitro) of test compounds by adding the compounds to human GPR119-expressed CHO cells to determine cAMP production of the cells.
Human GPR119-expressed CHO cells (L8-18) were prepared by introducing an expression vector pMSF1-GPR119 (Geneticin-resistance) carrying human GPR119 genes into CHO cells (LM-3; Mock cells) wherein lusiferase expression vector pLG3-CRE6-CRE-VIP (Hygromycin B-resistance) were introduced according to the known method (The Journal of Biological Chemistry Vol. 274 (34), pp. 23940-23947).
Cryopreserved L8-18 cells were melted, and then suspended into 9-fold amounts of assay buffer and centrifuged (1000 rpm, 5 minutes) at room temperature. The supernatant was removed, and then the precipitated cells were resuspended into assay buffer (4 mL). Thereto was added assay buffer which contained IBMX (manufactured by Sigma, #17018-1G), and 7.5×10^4 cells/mL of cell suspension was prepared. The cell suspension was let stand at room temperature for 15 minutes, and then to each well of 96 half well white plate (manufactured by Corning Incorporated, #3693) were added the cell suspension (20 μL) and a solution of a test compound or AR231453 (5 μL; a total of 25 (final concentration: 1500 cells/well, 500 μM IBMX, 1% dimethylsulfoxide). The mixture was incubated at 37° C. for 30 minutes, and then to each well were added a 20-fold diluted solution (each 12.5 μL/well) of cAMP-d2 and Anti cAMP-Cryptate of HTRF cAMP kit (manufactured by Cisbio, #62AM4PEC). The mixture was stirred, and then was let stand for 1 hour under light shielding. A fluorescence intensity was measured by time-resolved fluorescence mode (Ex: 320 nm, Em: 665 nm, 620 nm) of Microplate Reader (ARVO or SpectraMax M5e). In ARVO, Ratios [Ratio=(665 nm/620 nm)×10^4)] of cAMP-d2 to Anti cAMP-Cryptate were calculated from the resulting fluorescence intensity, and cAMP concentrations of each well were calculated from cAMP standard curve prepared by the Ratios and GraphPad Prism. In SpectraMax M5e, cAMP concentrations of each well were calculated on the basis of a standard curve prepared by the resulting fluorescence intensity and Softmax Pro.
EC50 of test compounds were calculated by GraphPad Prism.

C57BL/6N male mice = test: Inhibitory effect on increased blood glucose after oral glucose load in fasted mice; type: in vivo; details: one hour before glucose load (3 g/kg, p.o.), C57BL/6N male mice fasted 21 hours
Experimental: C57BL/6N male mice was fasted for 21 hours, and then a stratified randomization allocation was carried out by EXSUS Ver7.6 NP (Arm Systex Co., Ltd.) based on body weights (n=8). Vehicle (solvent: 0.1% Tween 80/0.5% hydroxypropyl methylcellulose) (control group) or a suspended solution of a test compound in the vehicle (test compound group) was orally administered to the mice, and a glucose load (3 g/kg, p.o.) was carried out one hour after administration of a test compound. Blood samplings from the test mice were carried out at each time point of just before administration of drug (−60 min), immediately before glucose load (0 min), 30 minutes (30 min), 60 minutes (60 min) and 120 minutes (120 min) after glucose load. Blood glucose levels at each time point were measured by glucose CII-Test Wako (manufactured by Wako Pure Chemical Industries, Ltd.), AUC (0-120 min) was calculated in each administration group on the basis of the measured value, and evaluated by time-dependent variance analysis and Student's t-Test using EXSUS Ver7.6NP (Arm Systex Co., Ltd.).
An inhibitory effect on increased blood glucose of each test compound (A ratio value of AUC (0-120 min) of the test compound group in case that AUC (0-120 min) of the control group is 100) is shown in the following Table 36.

SMILES | EC50 (human GPR119) [nM] | Inhibitory Effect on Increased Blood Glucose (ratio value of AUC (0-120 min) of test compound group, control group = 100) (C57BL/6N male mice; 3 mg/kg orally) | further results
CCc1cnc(N2CCC(n3cc(F)c4c(Nc5ccc(C(=O)N6CC[C@@H](O)C6)cc5Cl)ncnc43)CC2)nc1 [Example Compound 185] | – | – | Inhibitory Effect on Increased Blood Glucose (ratio value of AUC (0-120 min) of test compound group, control group = 100) (C57BL/6N male mice; 1 mg/kg orally): 89
CCCc1cnc(N2CCC(n3cc(F)c4c(Nc5ccc(C(=O)N6CC[C@@H](O)C6)cc5F)ncnc43)CC2)nc1 [Example Compound 121] | – | 82 | –
CCc1cnc(N2CCC(n3cc(F)c4c(Nc5ccc(C(=O)N(C)C)cc5F)ncnc43)CC2)nc1 [Example Compound 6, 4-[7-[1-(5-ethylpyrimidin-2-yl)piperidin-4-yl]-5-fluoro-7H-pyrrolo[2,3-d]pyrimidin-4-ylamino]-3-fluoro-N,N-dimethylbenzamide] | – | – | Inhibitory Effect on Increased Blood Glucose (ratio value of AUC (0-120 min) of test compound group, control group = 100) (C57BL/6N male mice; 10 mg/kg orally): 85
CCc1cnc(N2CCC(n3cc(F)c4c(Nc5ccc(C(=O)N(C)CCO)cc5F)ncnc43)CC2)nc1 [Example Compound 8, 4-[7-[1-(5-ethylpyrimidin-2-yl)piperidin-4-yl]-5-fluoro-7H-pyrrolo[2,3-d]pyrimidin-4-ylamino]-3-fluoro-N-(2-hydroxyethyl)-N-methylbenzamide] | – | – | Inhibitory Effect on Increased Blood Glucose (ratio value of AUC (0-120 min) of test compound group, control group = 100) (C57BL/6N male mice; 10 mg/kg orally): 83
CC(C)Oc1cnc(N2CCC(n3cc(F)c4c(Nc5ccc(C(=O)N(C)C)cc5F)ncnc43)CC2)nc1 [Example Compound 56] | < 1000 | – | –
CN(CCO)C(=O)c1ccc(Nc2ncnc3c2c(F)cn3C2CCN(c3ncc(C4CC4)cn3)CC2)c(F)c1 [Example Compound 129] | – | 88 | –
CCc1cnc(N2CCC(n3cc(F)c4c(Nc5ccc(C(=O)N6CC[C@@H](O)C6)cc5F)ncnc43)CC2)nc1 [Example Compound 61] | < 1000 | – | Inhibitory Effect on Increased Blood Glucose (ratio value of AUC (0-120 min) of test compound group, control group = 100) (C57BL/6N male mice; 10 mg/kg orally): 85
CC(C)c1nc(N2CCC(n3cc(F)c4c(Nc5ccc(C(=O)N(C)CCO)cc5F)ncnc43)CC2)no1 [Example Compound 115] | – | 92 | –
O=C(c1ccc(Nc2ncnc3c2c(F)cn3C2CCN(c3noc(C(F)(F)F)n3)CC2)c(F)c1)N1CC[C@@H](O)C1 [Example Compound 178] | – | – | Inhibitory Effect on Increased Blood Glucose (ratio value of AUC (0-120 min) of test compound group, control group = 100) (C57BL/6N male mice; 1 mg/kg orally): 88
CC(C)(C)OC(=O)N1CCC(n2cc(F)c3c(Oc4ccc(S(C)(=O)=O)cc4F)ncnc32)CC1 [Example Compound 3, tert-butyl 4-[5-fluoro-4-(2-fluoro-4-mesylphenoxy)pyrrolo[2,3-d]pyrimidin-7-yl]piperidine-1-carboxylate] | < 1000 | – | –
CC(C)Oc1cnc(N2CCC(n3cc(F)c4c(Nc5ccc(C(=O)N(C)CCCO)cc5F)ncnc43)CC2)nc1 [Example Compound 154] | – | 86 | –
CC(C)c1cnc(N2CCC(n3cc(F)c4c(Nc5ccc(C(=O)N(C)CCO)cc5F)ncnc43)CC2)nc1 [Example Compound 124] | – | 86 | –
CC(C)(C)OC(=O)N1CCC(n2cc(F)c3c(Nc4ccc(-n5cncn5)cc4F)ncnc32)CC1 [Example Compound 15] | < 1000 | – | –
CN(CCO)C(=O)c1ccc(Nc2ncnc3c2c(F)cn3C2CCN(c3ncc(OC(F)F)cn3)CC2)c(F)c1 [Example Compound 193] | < 1000 | – | –
CN(CCO)C(=O)c1ccc(Nc2ncnc3c2c(F)cn3C2CCN(c3ncc(Cl)cn3)CC2)c(F)c1 [Example Compound 134] | – | 82 | –
CC(C)c1cnc(N2CCC(n3cc(F)c4c(Nc5ccc(C(=O)N6CCC[C@@H](O)C6)cc5F)ncnc43)CC2)nc1 [Example Compound 132] | – | 90 | –
O=C(c1ccc(Nc2ncnc3c2c(F)cn3C2CCN(c3ncc(C4CC4)cn3)CC2)c(F)c1)N1CC[C@@H](O)C1 [Example Compound 128] | – | 83 | –
CCc1cnc(N2CCC(n3cc(F)c4c(Nc5ccc(S(C)(=O)=O)cc5F)ncnc43)CC2)nc1 [Example Compound 77] | < 1000 | – | –
CN(C)C(=O)c1ccc(Nc2ncnc3c2c(F)cn3C2CCN(C(=O)OC(C)(C)C)CC2)c(Cl)c1 [Example Compound 17] | < 1000 | – | –
CC(C)OC(=O)N1CCC(n2cc(F)c3c(Nc4ccc(C(=O)N5CCCC5)cc4F)ncnc32)CC1 [Example Compound 163] | – | 86 | –
CC(C)c1noc(N2CCC(n3cc(F)c4c(Nc5ccc(C(=O)N6CCCC6)cc5F)ncnc43)CC2)n1 [Example Compound 161] | – | 87 | –

Continued, in another order:

EC50 (human GPR119) [nM] | SMILES | Inhibitory Effect on Increased Blood Glucose (ratio value of AUC (0-120 min) of test compound group, control group = 100) (C57BL/6N male mice; 3 mg/kg orally) | further results
< 1000 | CCc1cnc(N2CCC(n3cc(F)c4c(Nc5cc(F)c(C(=O)N(C)CCO)cc5F)ncnc43)CC2)nc1 [Example Compound 164] | – | –
< 1000 | CCc1cnc(N2CCC(n3cc(F)c4c(Nc5ccc(C(=O)N(C)CCCO)cc5F)ncnc43)CC2)nc1 [Example Compound 63] | – | Inhibitory Effect on Increased Blood Glucose (ratio value of AUC (0-120 min) of test compound group, control group = 100) (C57BL/6N male mice; 10 mg/kg orally): 89
< 1000 | CN(C)C(=O)c1ccc(Nc2ncnc3c2c(F)cn3C2CCN(c3ncc(C(F)(F)F)cn3)CC2)c(F)c1 [Example Compound 54] | – | –
< 1000 | CN(CCCO)C(=O)c1ccc(Nc2ncnc3c2c(F)cn3C2CCN(c3noc(C(F)(F)F)n3)CC2)c(F)c1 [Example Compound 184] | – | –
< 1000 | CCc1cnc(N2CCC(n3cc(F)c4c(Nc5ccc(C(=O)N6CC[C@H](O)C6)cc5F)ncnc43)CC2)nc1 [Example Compound 62] | – | Inhibitory Effect on Increased Blood Glucose (ratio value of AUC (0-120 min) of test compound group, control group = 100) (C57BL/6N male mice; 10 mg/kg orally): 86
< 1000 | CN(CCCO)C(=O)c1ccc(Nc2ncnc3c2c(F)cn3C2CCN(c3ncc(C4CC4)cn3)CC2)c(F)c1 [Example Compound 138] | – | –
< 1000 | CC(C)c1noc(N2CCC(n3cc(F)c4c(Nc5ccc(C(=O)N(C)C)cc5Cl)ncnc43)CC2)n1 [Example Compound 21] | – | –
< 1000 | CN(C)C(=O)c1ccc(Nc2ncnc3c2c(F)cn3C2CCN(C(=O)OC(C)(C)C)CC2)c(F)c1 [Example Compound 1, tert-butyl 4-[4-(4-dimethylcarbamoyl-2-fluorophenylamino)-5-fluoropyrrolo[2,3-d]pyrimidin-7-yl]piperidine-1-carboxylate] | – | –
< 1000 | CC(C)(C)OC(=O)N1CCC(n2cc(F)c3c(Nc4ccc(S(C)(=O)=O)cc4Cl)ncnc32)CC1 [Example Compound 13] | – | –
1000 to 3000 | CC(C)OC(=O)N1CCC(n2cc(Cl)c3c(Nc4ncc(C(=O)N(C)C)cc4Cl)ncnc32)CC1 [Example Compound 2, isopropyl 4-[5-chloro-4-(3-chloro-5-dimethylcarbamoylpyridin-2-ylamino)pyrrolo[2,3-d]pyrimidin-7-yl]piperidine-1-carboxylate] | – | –
